What is called IC50 is the point on the concentration scale where inhibition reaches its midpoint. A high value points to weaker potency in that assay.

In one assay the target is ORAI1/STIM1 (Homo sapiens) (UniProt Q96D31+Q13586). Kind of assay: Inhibition of recombinant human STIM1/Orai1 expressed in HEK293 cells assessed as inhibition of peak basal signal after 30 mins by fluo4-AM dye-based FLIPR assay. It is filed as cell-based.
Chain of ORAI1/STIM1 (Homo sapiens) (Q13586 23-685 partner limits assumed): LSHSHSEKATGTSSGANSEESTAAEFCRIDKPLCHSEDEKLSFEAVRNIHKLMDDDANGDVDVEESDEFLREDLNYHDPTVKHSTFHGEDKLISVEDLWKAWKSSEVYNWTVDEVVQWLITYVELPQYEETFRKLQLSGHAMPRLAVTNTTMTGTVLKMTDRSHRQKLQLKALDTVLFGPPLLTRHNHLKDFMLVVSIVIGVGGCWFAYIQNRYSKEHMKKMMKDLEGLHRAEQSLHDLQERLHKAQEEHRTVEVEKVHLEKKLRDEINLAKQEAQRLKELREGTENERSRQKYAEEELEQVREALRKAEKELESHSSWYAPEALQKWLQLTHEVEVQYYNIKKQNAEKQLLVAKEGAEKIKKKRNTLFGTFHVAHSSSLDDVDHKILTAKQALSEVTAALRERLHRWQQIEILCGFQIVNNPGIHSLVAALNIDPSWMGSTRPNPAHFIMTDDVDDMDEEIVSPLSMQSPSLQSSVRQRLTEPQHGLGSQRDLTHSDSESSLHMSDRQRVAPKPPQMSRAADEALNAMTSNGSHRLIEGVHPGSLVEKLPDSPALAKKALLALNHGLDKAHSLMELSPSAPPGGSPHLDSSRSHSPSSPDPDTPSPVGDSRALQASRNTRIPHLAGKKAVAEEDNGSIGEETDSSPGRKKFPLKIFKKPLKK
Chain of ORAI1/STIM1 (Homo sapiens) (Q96D31 whole entry): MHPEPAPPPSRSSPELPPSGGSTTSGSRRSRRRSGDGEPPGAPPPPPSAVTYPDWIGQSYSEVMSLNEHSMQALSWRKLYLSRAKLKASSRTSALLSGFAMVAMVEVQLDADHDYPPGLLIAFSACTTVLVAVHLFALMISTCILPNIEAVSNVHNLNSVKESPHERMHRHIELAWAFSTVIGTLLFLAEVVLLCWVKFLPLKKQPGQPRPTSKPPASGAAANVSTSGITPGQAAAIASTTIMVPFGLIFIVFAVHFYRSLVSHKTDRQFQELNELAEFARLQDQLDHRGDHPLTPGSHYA
For the molecule `Cn1nc(C(F)(F)F)cc1-c1ccc(NC(=O)c2ccncc2F)s1`, the Efficacy was less than 50%.

`Cc1ccccc1C(=O)Nc1ncc(-c2cc(C(F)(F)F)nn2C)s1`: the Efficacy was less than 50%.

The next assay deals with Jurkat. Nature of the assay: Inhibition of PHA/TPA-induced IL2 release in human Jurkat T cells preincubated for 10 mins followed by PHA/TPA stimulation measured after […] by ELISA. It is filed as functional, cell-based. (In general: An ELISA detects its analyte on a solid surface through an enzyme-linked reagent.)
`Cn1nc(-c2nccs2)cc1-c1ccc(C(=O)Nc2ccncc2F)s1` displayed a 50% inhibitory concentration (IC50) of less than 50 nM.

`Cn1nc(-c2ccccc2F)cc1-c1ccc(C(=O)Nc2c(F)cncc2F)s1` gave an IC50 of less than 50 nM.

For `Cn1nc(-c2nccs2)cc1-c1ccc(C(=O)Nc2ncc(Cl)cc2F)s1`, the half-maximal inhibitory concentration (IC50) is less than 50 nM.

In the case of `Cn1nc(-c2ccco2)cc1-c1ccc(C(=O)Nc2ncc(Cl)cc2F)s1`, the IC50 is less than 50 nM.

The molecule `Cn1nc(-c2ccccc2F)cc1-c1ccc(C(=O)Nc2ccncc2F)s1` yielded a concentration for half-maximal inhibition (IC50) of less than 50 nM.

Consider `Cn1nc(-c2ccccc2F)cc1-c1ccc(C(=O)Nc2ncc(Cl)cc2F)s1`, for which the IC50 was less than 50 nM.

`Cn1nc(C(F)(F)F)cc1-c1cnc(NC(=O)c2ccccc2F)s1` yielded a half-inhibitory concentration (IC50) of less than 50 nM.

Regarding `Cn1nc(-c2ccccc2F)cc1-c1ccc(C(=O)Nc2ncccc2F)s1`, the IC50 was determined as 50 nM.

Molecule `Cn1nc(-c2ccco2)cc1-c1ccc(C(=O)Nc2c(F)cncc2F)s1` displayed an IC50 of less than 50 nM.

`Cn1nc(-c2ccco2)cc1-c1ccc(C(=O)Nc2ccccc2Cl)s1` showed a half-inhibitory concentration (IC50) of 50 nM.

Consider `Cn1nc(-c2ccco2)cc1-c1ccc(C(=O)Nc2ncccc2F)s1`, for which the 50% inhibitory concentration (IC50) is more than 100 nM.

The molecule `Cn1nc(-c2nccs2)cc1-c1ccc(C(=O)Nc2ccccc2F)s1` yielded an IC50 of less than 50 nM.

`Cn1nc(-c2ccccc2)cc1-c1ccc(C(=O)Nc2ccncc2F)s1` came in with a 50% inhibitory concentration (IC50) of 50 nM. That is a double-digit nanomolar value.

For `Cc1nc2cc(Cl)c(-c3cnc(NC(=O)c4ccccc4Cl)s3)cc2o1`, the IC50 was 50 nM.

`Cn1nc(-c2ccco2)cc1-c1ccc(C(=O)Nc2ccncc2F)s1` registered an IC50 of less than 50 nM.

As to `Cn1nc(-c2ccccc2)cc1-c1ccc(C(=O)Nc2ccccc2F)s1`, the IC50 is more than 100 nM.

These data come from ChEMBL document CHEMBL3727365, “Compounds that modulate intracellular calcium” (2012).
